The test system of test [1] is 661W or C6 cells. The test can be described thus: MTT assay, protection against calcium-ionophore A23187. The class given is cell-based. As to conditions: 1 μM A23187, 24 h. The protocol: The compound 3-(4,5-Dimethylthiazol-2-yl)-2,5-diphenyltetrazolium bromide (MTT) is a tetrazolium ion that is reduced to a blue formazan dye via several families of NAD(P)H-dependent oxidoreductases. Formation of the formazan dye from MTT or other related tetrazolium dyes are commonly used as a viability assay even though, in fact, the assay is a metabolic capacity assay.
In this assay, 661W or C6 cells were maintained in DMEM supplemented with 10% FBS. 100 μL of 70,000 cells/mL cells were seeded into each well of 96 well plates using DMEM supplemented with 5% FBS. Cells were then allowed to grow to confluency for 48 hours. The compounds of the invention were added in 2 μL media and calcium-ionophore A23187 was then added in 1 μL for a final concentration of 1 μM and after 24 h, 20 μL of […] MTT were added to each well and the cells were incubated for another 4 h after which 100 μL of 1% SDS in 0.01M aqueous HCl were added to each well and the plates were incubated overnight. Absorbance was measured at […] (background correction). The 1 μM ionophore A23187 caused about 50% loss in MTT signal at 24 h. Protection was calculated as the increase in absorbance of treatment groups normalized to the vehicle control.

For test [2], the system named is retinal explants from Ser344ter-3 rats. Nature of the test: S334ter assay, retinal explants. The test is classed as cell-based, rat. The settings on record: P12-P17 retinal explants. The protocol: To further evaluate neuroprotection, certain compounds of the invention were evaluated with the Ser344ter-3 rats in which a truncation in the rhodopsin […] eliminated a phosphorylation site. It has been shown that the Ser344ter-3 rhodopsin was extensively misfolded causing induction of ER stress genes BiP and CHOP (Kroeger 2012). […] Statistically significant protection against loss of photoreceptor cell nuclei was observed (Table 5 below).

In test [3] the test system is 661W or C6 cells. The test can be described thus: XF FCCP-uncoupled oxygen consumption rate assay (IBMX challenge).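 On all read-outs here: values normalized to the vehicle control.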 As to conditions: 1 h pretreatment, 600 μM IBMX, 24 h, read-out: XF FCCP OCR (% Ctrl); for activity at 0.001 µM: compound 1 nM. The class given is cell-based. The protocol:
The XF FCCP-uncoupled oxygen consumption rate assay assesses mitochondrial capacity by measuring cellular respiration. It was shown that the maximum FCCP-uncoupled oxygen consumption rate (OCR) was a good estimate of maximal mitochondrial capacity (Beeson 2010) and that IBMX treatment of 661W or C6 cells for 24 h caused a loss in maximal uncoupled OCR (Perron 2013). Thus, cells were pretreated with the exemplified compounds for 1 h, added 600 μM IBMX and then measured the uncoupled rate after 24 h. In brief, the OCR measurements were performed using a Seahorse Bioscience XF instrument (Seahorse Bioscience, Billerica, Md.), as previously published (Perron 2013). O2 leakage through the plastic sides and bottom of the plate was accounted for using the AKOS algorithm in the XF software package. Cells were plated on 96- or 24-well custom plates designed for use in the XF and grown to confluency in DMEM+5% FBS (48 h). The medium was then replaced with DMEM+1% FBS for 24 h, along with any treatments.

The test system of a further test is Balb/c mice. Nature of the test: Light model assay (constant light damage, eyedrops). As to conditions: continuous light 7 days, rows of photoreceptors. The test is classed as in vivo, mouse. An excerpt:
The light model assay is generally accepted as a model of age related macular degeneration (AMD). […] In particular, oxidative damage has been detected by immunohistochemistry, detecting the presence of oxidized and tyrosine-phosphorylated proteins as well as the upregulation of endogenous antioxidants such as thioredoxin and glutathione peroxidase. […] Additional indirect evidence for the involvement of oxidative stress in photoreceptor degeneration has been provided by treatment of photodamaged retinas with antioxidants such as dimethylthiourea, or the treatment of N-methyl-N-nitrosourea (MNU)-challenged rats with the antioxidant DHA.
The light model assay was used to further test the therapeutic potential of the compounds of the invention. Photoreceptors from albino animals are very sensitive to constant light, lacking the RPE pigment to protect them. Thus, Balb/c mice were exposed to continuous light for 7 days, which caused loss of about 50% of the photoreceptor cells as measured via histology. To test the potential therapeutic efficacy, eyedrops were formulated in 0.1% Bij 35 in […], applied once or twice daily throughout the period of light exposure, and their effect assessed on the light-induced degeneration of photoreceptor cells morphologically and electrophysiologically, 10 days after the onset of the CL exposure.

The test system of test [4] is rd1 mouse retina organ cultures. The test can be described thus: Retinal degeneration assay, rd1 mouse retinal explants. The class given is cell-based. The settings on record: rows of photoreceptors in ONL, explants cultured 11 days. The protocol: It was reasoned that the compounds' activities would enable them to protect against loss of photoreceptors in retinal degenerative animal models. As a translational bridge between the cell line-based assays and in vivo animal studies, mouse retina organ cultures were utilized. These retinal explants were a powerful ex vivo screening tool, which allowed the testing of photoreceptor cell survival within the retinal network, and the effects of a specific compound were tested like in an in vitro system, without systemic interference. In this assay, the rd1 mouse was utilized. The genotype of the rd1 mouse has a mutation in the β-subunit of the phosphodiesterase gene. […] The genetic deficit and the retinal pathology were very similar to that observed in the patients with βPDE-dependent RP. In these mice, rod photoreceptor degeneration started after postnatal day 10 (P10), progressing rapidly, such that at P21, only 1-2 rows of photoreceptor remained, mainly representing cones. Finally, the rd1 mouse retina was amenable to culturing, replicating both retinal development and degeneration, following the same time course as in vivo. The retinal explants were cultured for 11 days ex vivo. […] At the end of the experiments, tissues were fixed, sectioned and stained with 0.1% toluidine and the numbers of rows of photoreceptors remaining in the outer nuclear layer (ONL) were counted.

As for `COc1ccc(O)c(CC2(OC(=O)c3ccccc3)C(=O)N(CCCC(C)C)c3ccc(C)cc32)c1` (centres unmarked) [Example 58, 3-(2-hydroxy-5-methoxybenzyl)-5-methyl-1-(4-methylpentyl)-2-oxoindolin-3-yl benzoate], the “MTT, % protection” value in the test on 661W or C6 cells [1] (compound 100 nM) is 100%,. In addition, in test [2] (50 nM), the “s334ter protection (# of rows)” value is given as 50 nM, 2.73 # of rows. The activity at 0.001 µM with 661W or C6 cells [3] was 97%. Besides, in the test with Balb/c mice (100 μM eyedrops once per day), the “LD Protection (# of rows)” value is on record as 6.06 # of rows.
Turning to `C#CCCCN1C(=O)C(O)(CC(=O)c2c[nH]c3ccccc23)c2cc(C)ccc21` (centres unmarked) [Example 13, 3-(2-(1H-indol-3-yl)-2-oxoethyl)-3-hydroxy-5-methyl-1-(pent-4-yn-1-yl)indolin-2-one], the “MTT, % protection” value in the test on 661W or C6 cells [1] (compound 100 nM) is given as 79.4%,. The “LD Protection (# of rows)” value with Balb/c mice (1 mM eyedrops once per day) is on record as 5.44 # of rows.
With `COc1cccc(C(=O)CC2(O)C(=O)N(CCCN=[N+]=[N-])c3ccc(C)cc32)n1` (centres unmarked) [Example 28, 1-(3-azidopropyl)-3-hydroxy-3-(2-(6-methoxypyridin-2-yl)-2-oxoethyl)-5-methylindolin-2-one], in the test on 661W or C6 cells [1] (compound 1 μM), the “MTT, % protection” value is 65.9%,. Further, the “LD Protection (# of rows)” value in the test on Balb/c mice (1 mM eyedrops once per day) was 5.55 # of rows.
Take `CCCN1C(=O)C(O)(CC(=O)c2c[nH]c3ccccc23)c2cc(Cl)ccc21` (centres unmarked) [Example 31, 3-(2-(1H-indol-3-yl)-2-oxoethyl)-5-chloro-3-hydroxy-1-propylindolin-2-one]: in the test with 661W or C6 cells [1] (compound 1 nM), the “MTT, % protection” value is listed as 64.2%,. In test [4] (10 nM), the “rd1 protection (# of rows)” value is on record as 10 nM, 2.53 # of rows. Moreover, the activity at 0.001 µM in the test with 661W or C6 cells [3] was found to be 74%. Besides, the “LD Protection (# of rows)” value in the test on Balb/c mice (1 mM eyedrops once per day) is 5.94 # of rows.
Take `CCN1C(=O)C(O)(Cc2cc(OC)c(OC)c(OC)c2)c2cc(C)ccc21` (centres unmarked) [Example 34, 1-ethyl-3-hydroxy-5-methyl-3-(3,4,5-trimethoxybenzyl)indolin-2-one]: the “MTT, % protection” value in the test with 661W or C6 cells [1] (compound 1 nM) is 82.4%,. For the same compound, the activity at 0.001 µM in the test with 661W or C6 cells [3] came out at 94%. Moreover, the “LD Protection (# of rows)” value with Balb/c mice (10 μM eyedrops once per day) is 5.47 # of rows.
Consider `CCN1C(=O)C(Cc2cccc(OC)c2O)(OC(=O)c2ccccc2)c2cc(Cl)ccc21` (centres unmarked) [Example 59, 5-chloro-1-ethyl-3-(2-hydroxy-3-methoxybenzyl)-2-oxoindolin-3-yl benzoate], for which, in the test with 661W or C6 cells [1] (compound 1 μM), the “MTT, % protection” value was 117.4%,. Further, the activity at 0.001 µM in the test on 661W or C6 cells [3] turned out to be 92%. The “LD Protection (# of rows)” value in the test on Balb/c mice (100 μM eyedrops once per day) was 5.98 # of rows.
As to `CCCCN1C(=O)C(O)(CC(=O)c2ccccn2)c2ccccc21` (centres unmarked) [Example 12, 1-butyl-3-hydroxy-3-(2-oxo-2-(pyridin-2-yl)ethyl)indolin-2-one], the “MTT, % protection” value with 661W or C6 cells [1] (compound 10 μM) was 67%,. Besides, the “rd1 protection (# of rows)” value in test [4] (5 μM) is given as 5 μM, 3.19 # of rows. In test [2] (1 μM), the “s334ter protection (# of rows)” value is recorded as 1 μM 3.86 # of rows. Further, the activity at 10 µM in the test with 661W or C6 cells [3] (compound 10uM) amounted to 73%. Further, the “LD Protection (# of rows)” value with Balb/c mice (1 mM eyedrops once per day) is on record as 5.33 # of rows.

Source of the values: patent US9079853B2, “Isatin compounds, compositions and methods for treatment of degenerative diseases and disorders” (MUSC FOUNDATION FOR RESEARCH DEVELOPMENT, priority 2013, dated 2015).
